Experimental data from US20200297847A1, “Pharmaceutical Composition For Treating Obesity Induced By High Fat Diet And Non-Alcoholic Fatty Liver Disease By Using Trisodium Chlorin E6 Photosensitizer” (DONG SUNG PHARM. CO., LTD., priority 2017, published 2020).

Columns and labels:
mice = test: toxicity detection (shape of whole body and internal organs after dissection); type: in vivo
Method: The mice treated with Chlorin e6 were tested for potential toxicity by observing the shape of the internal organs through dissection after killing.
The main concern in the development of medicaments or therapies is safety, and the safe use of medicaments means to effectively treat the disease with minimal or no toxicity in the body or parts of the body. Therefore, in the present experiment, the toxic effects of drugs and LED irradiation were examined. After the mice were dissected, the whole body and internal organs were examined in order to verify toxicity. […] It was observed that the liver was normal other than the fatty liver observed in the groups treated with HFD alone and LED alone (FIG. 6).

high-fat diet mice [1] = test: anti-obesity experiment (PDT, body weight of mice fed with high-fat diet); type: in vivo, C57 Black mice; settings: group 5: HFD + 2.5 mg/kg intraperitoneally + high-level LED irradiation (4.96 mW/cm^2, 10 min, 2.98 J/cm^2); compared with group 4 (low-level LED) and group 1 (HFD); FIG. 2
Method: (§1) 6-week-old C57 Black mice were purchased and were fed with normal diet for a week of environmental adaptation.
(§2) After feeding with normal diet for a week, these mice were randomly divided into 7 groups and tested. The body weight thereof was measured periodically (three times per week), and an anti-obesity experiment was conducted when the body weight was about 20% more than the initial body weight. The anti-obesity experiment was as follows.
For group 1, only high-fat diet (HFD) was provided and the body weight was periodically measured (HFD).
For group 2, only high-fat diet (HFD) was provided and the body weight was periodically measured, and the mice were placed in an LED-illuminated cage when the body weight thereof was about 20% or more than the initial body weight, followed by irradiation with low-level LED light.
For group 3, only high-fat diet (HFD) was provided and the body weight was periodically measured, and the mice were placed in an LED-illuminated cage when the body weight thereof was about 20% or more than the initial body weight, followed by irradiation with high-level LED light.
For group 4, only high-fat diet (HFD) was provided and the body weight was periodically measured, and when the body weight was about 20% or more than the initial body weight, trisodium Chlorin e6 (2.5 mg/kg) was dissolved in 200 μl of a saline solution and administered intraperitoneally. […]

high-fat diet mice [2] = test: lipid production and examination of non-alcoholic steatohepatitis (morphological examination of liver); type: in vivo, C57 Black mice; settings: FIG. 3
Method: as §1, §2
For group 4, only high-fat diet (HFD) was provided and the body weight was periodically measured, and when the body weight was about 20% or more than the initial body weight, trisodium Chlorin e6 (2.5 mg/kg) was dissolved in 200 μl of a saline solution and administered intraperitoneally. After intraperitoneal administration thereof, the mice were allowed to adapt to a dark room for 3 hr and then placed in an LED-illuminated cage, followed by irradiation with low-level LED light.
For group 5, only high-fat diet (HFD) was provided and the body weight was periodically measured, and when the body weight was about 20% or more than the initial body weight, trisodium Chlorin e6 (2.5 mg/kg) was dissolved in 200 μl of a saline solution and administered intraperitoneally. […]

## trisodium Chlorin e6
mice; Chlorin e6 and LED irradiation in mice
  toxicity during treatment: Toxicity was not observed
mice; mouse, in vivo
  internal organs after dissection: no bleeding, color change or gangrene in the intestines was observed
high-fat diet mice [1]
  weight loss / reduction of percentage of weight gain: the most effective group
high-fat diet mice [2]; group 4: HFD + 2.5 mg/kg intraperitoneally + low-level LED irradiation (2.56 mW/cm^2, 5 min, 0.77 J/cm^2)
  non-alcoholic steatohepatitis (NASH): alleviated
high-fat diet mice [2]; group 5: HFD + 2.5 mg/kg intraperitoneally + high-level LED irradiation
  non-alcoholic steatohepatitis (NASH): alleviated
